This is an account of results in US11661437B2, “Steroid derivative regulators, method for preparing the same, and uses thereof” (priority 2018, dated 2023).

As a reminder, the pIC50 is −log10 of the IC50, conventionally taken in molar units.

One test deals with GABA-A receptor. The experiment in a line: 35S-TBPS binding assay on rat cerebral cortex cell membrane. Also on record: species or system Sprague-Dawley rat. Conditions: 2 nM 35S-TBPS, GABA added, read-out: 35S-TBPS bindng test, IC50 on inhibiting the TBPS binding activity. Summed up:
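Male Sprague-Dawley rat cortical membranes in PBS were preincubated 5 min at 25 °C with compound (8-point 3-fold series […], 1% DMSO), then with GABA ([…]). 2 nM 35S-TBPS was added for 20 h at 4 °C, followed by GF/C filtration and scintillation counting. % inhibition was normalised to DMSO and 10 μM reference controls, with IC50 from a 4-parameter fit.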

The next test relates to CD-1 mice. The test can be described thus: In vivo pharmacodynamic test in the PTZ-induced epilepsy model in mice. The settings on record: 3 mpk p.o., PTZ 120 mg/kg s.c., 30 min observation. The method, then:
The PTZ-induced epilepsy model in CD-1 mice was established, and the antiepileptic effect of the compounds of Example 5 and Example 23 was evaluated using this model.
30 male CD-1 mice were purchased from Beijing Vital River Laboratory Animal Technology Co. Ltd. The test animals were adapted at the animal room in the third building of Shanghai ChemPartner Co., Ltd for 7 days before the test. The average body weight of the animals on the test day was 32.2±0.2 grams. Feeding environment: 5 animals/cage, room temperature 23±2° C., 12/12 hours of light and dark cycle, free access to food and water.
1) Vehicle/PTZ: 0.5% CMC-Na+1% Tween-80 (10 ml/kg, p.o.), administrated 0.5 hr before the PTZ administration; PTZ ([…], s.c.), administrated before the test;
2) 3 mg/kg of the compounds of Examples/PTZ: the compounds of Example 5 and Example 23 (3 mg/kg, 10 ml/kg, p.o.), administrated 0.5 hr before the PTZ administration; PTZ ([…], s.c.), administrated before the test.
3) The compounds of Example 5 and Example 23 were administrated respectively 1 hour before the PTZ administration, or 0.5% CMC-NA+1% Tween-80, the compounds of Example 5 and Example 23 were administrated respectively 0.5 hour before the PTZ administration;
4) PTZ (120 mg/kg) was administrated subcutaneously before the test observation, and this time point was recorded as the observation start point;
6) The possible side effects induced by the drug after the administration were observed and recorded, which can be divided into four levels: • None: normal • Mild sedation • Moderate sedation • Severe sedation
The mice were randomly grouped, marked and weighed; 10 mice per group. The test compound was administrated orally at an administration volume of 10 mL/kg 30-60 minutes before the PTZ administration.
PTZ (120 mg/kg) was administrated subcutaneously before the test observation, and this time point was recorded as the observation start point; after the administration of PTZ, the animal was immediately placed in the observation box and observed for 30 minutes, and the followings were recorded: a) the incubation period of the first clonic seizure, b) the incubation period of the first generalized tonic seizure, c) the number of clonic seizures, d) the number of generalized tonic seizures, e) the time when the animal died.
All measurement data were expressed as Mean±SEM, and analysed with Prism 6.0 statistical software.

pIC50: −log10 of the molar value.

With `C[C@@]1(O)CC[C@@]2(F)[C@H](CC[C@H]3[C@@H]4CC[C@H](C(=O)Cn5cc(C#N)cn5)[C@@]4(C)CC[C@@H]32)C1` [Example 2, 1-(2-((3R,5R,8S,9S,10R,13S,14S,17S)-10-Fluoro-3-hydroxy-3,13-dimethylhexadecahydro-1H-cyclopenta[a]phenanthren-17-yl)-2-oxoethyl)-1H-pyrazole-4-carbonitrile], the pIC50 with GABA-A receptor was 7.93.
Take `C[C@@]1(O)CC[C@@]2(F)[C@H](CC[C@H]3[C@@H]4CC[C@H](C(=O)Cn5ccc(C(F)(F)F)n5)[C@@]4(C)CC[C@@H]32)C1` [Example 5, 1-((3R,5R,8S,9S,10R,13S,14S,17S)-10-Fluoro-3-hydroxy-3,13-dimethylhexadecahydro-1H-cyclopenta[a]phenanthren-17-yl)-2-(3-(trifluoromethyl)-1H-pyrazol-1-yl)ethan-1-one]: the pIC50 with GABA-A receptor is 8.08. In the test on CD-1 mice, the “Incubation period of the clonic seizure Mean ± SEM” value came to 644.5 ± 122.0 s, the “Incubation period of the generalized tonic seizure Mean” value is 1576.7 ± 108.8 s, the Mortality rate was determined as 40% and the “Number of clonic seizures Mean” value is 1.8 ± 0.3. Further, in the test with CD-1 mice, the “Number of generalized tonic seizures Mean” value was 0.4 ± 0.2 and the “Time when the animal died Mean” value came out at 1623.0 ± 105.5 s.
Take `C[C@@]1(O)CC[C@@]2(F)[C@H](CC[C@H]3[C@@H]4CC[C@H](C(=O)CNc5ccc(F)cc5)[C@@]4(C)CC[C@@H]32)C1` [Example 23, 1-((3R,5R,8S,9S,10R,13S,14S,17S)-10-Fluoro-3-hydroxy-3,13-dimethylhexadecahydro-1H-cyclopenta[a]phenanthren-17-yl)-2-((4-fluorophenyl)amino)ethan-1-one]: the pIC50 in the test with GABA-A receptor was 7.51. Moreover, in the test with CD-1 mice, the “Incubation period of the clonic seizure Mean ± SEM” value came to 366.5 ± 21.1 s, the “Incubation period of the generalized tonic seizure Mean” value was 1519.9 ± 117.9 s, the Mortality rate was determined as 40% and the “Number of clonic seizures Mean” value amounted to 1.8 ± 0.2. In addition, in the test on CD-1 mice, the “Number of generalized tonic seizures Mean” value was determined as 0.4 ± 0.2 and the “Time when the animal died Mean” value is 1527.7 ± 114.6 s.
